Reference: patent US6949522B2, “β-2′- or 3′-halonucleosides” (Pharmasset, Inc., priority 2001, dated 2005)
Marks after values point to notes of the source that are not given here.

Experiments:
HIV-1LAI = experiment: HIV assay in human PBM cells (RT activity of supernatant); type: cell-based; details: 5 days, read-out: Anti-HIV-1 Activity (EC50)
From the text: Human peripheral blood mononuclear (PBM) cells (obtained from Atlanta Red Cross) were isolated by Ficoll-Hypaque discontinuous gradient centrifugation from healthy seronegative donors. Cells were stimulated with phytohemagglutinin A (Difco, Sparks, Md.) for 2-3 days prior to use. HIV-1LAI obtained from the Centers for Disease Control and Prevention (Atlanta, Ga.) was used as the standard reference virus for the antiviral assays. The molecular infetious clones HIV-1xxBru and HIV-1M184Vpin were obtained from Dr. John Mellors (University of Pittsburgh). Infections were done in bulk for one hour, either with 100 TCID50/1×10^7 cells for a flask (T25) assay or with 200 TCID50/6×10^5 cells/well for a 24 well plate assay. Cells were added to a plate or flask containing a ten-fold serial dilution of the test compound. Assay medium was RPMI-1640 supplemented with heat inactivated 16% fetal bovine serum, 1.6 mM L-glutamine, 80 IU/ml penicillin, 80 μg/ml streptomycin, 0.0008% DEAE-Dextran, 0.045% sodium bicarbonate, and 26 IU/ml recombinant interleukin-2 (Chiron Corp, Emeryville, Calif.). AZT was used as a positive control for the assay. Untreated and uninfected PBM cells were grown in parallel at equivalent cell concentrations as controls. The cell cultures were maintained in a humidified 5% CO2-air at 37° C. for 5 days and supernatants were collected for reverse transcriptase (RT) activity.
Supernatants were centrifuged at 12,000 rpm for 2 hours to pellet the virus. The pellet was solubilized with vortexing in 100 μl virus solubilization buffer (VSB) containing 0.5% Triton X-100, 0.8 M NaCl, 0.5 mM phenylmethylsulfonyl fluoride, 20% glycerol, and 0.05 M Tris, pH 7.8. Ten μL of each sample were added to 75 μL RT reaction mixture (0.06 M Tris, pH 7.8, 0.012 M MgCl2, 0.006 M dithiothreitol, 0.006 mg/ml poly (rA)n, oligo (dT)12-18, 96 μg/ml dATP, and 1 μM of 0.08 mCi/ml ^3H-thymidine triphosphate (Moravek Biochemicals, Brea, Calif.) and incubated at 37° C. for 2 hours. The reaction was stopped by the addition of 100 μL 10% trichloroacetic acid containing 0.05% sodium pyrophosphate. The acid insoluble product was harvested onto filter paper using a Packard Harvester (Meriden, Conn.), and the RT activity was read on a Packard Direct Beta Counter (Meriden, Conn.). The RT results were expressed in counts per minute (CPM) per milliliter.

human PBM cells = experiment: in vitro; type: cell-based
Protocol: The compounds were evaluated for their potential toxic effects on uninfected PHA-stimulated human PBM cells, in CEM (T-lymphoblastoid cell line obtained from American Type Culture Collection, Rockville, Md.) and Vero (African green monkey kidney) cells. PBM cells were obtained from whole blood of healthy seronegative donors (HIV-1 and hepatitis B virus) by single-step Ficoll-Hypaque discontinous gradient centrifugation. […] All of the cells were plated in 96-well cell culture plates containing ten-fold serial dilutions of the test drug. […] At the end of incubation, MTT tetrazolium dye solution (Cell titer 96®, Promega, Madison, Wis.) was added to each well and incubated overnight. The reaction was stopped with stop solubilization solution (Promega, Madison, Wis.). The plates were incubated for 5 hours to ensure that the formazan crystals were dissolved. The plates were read at a wavelength of 570 nm using an ELISA plate reader (Bio-tek instruments, Inc., Winooski, Vt., Model # EL 312e). […] Bookmark not defined.

[1] = tested on: Vero (African green monkey kidney) cells; experiment: in vitro; type: cell-based
Protocol: (§1) The compounds were evaluated for their potential toxic effects on uninfected PHA-stimulated human PBM cells, in CEM (T-lymphoblastoid cell line obtained from American Type Culture Collection, Rockville, Md.) and Vero (African green monkey kidney) cells. PBM cells were obtained from whole blood of healthy seronegative donors (HIV-1 and hepatitis B virus) by single-step Ficoll-Hypaque discontinous gradient centrifugation. Log phase Vero, CEM and PHA-stimulated human PBM cells were seeded at a density of 5×10^3, 2.5×10^3 and 5×10^4 cells/well respectively. All of the cells were plated in 96-well cell culture plates containing ten-fold serial dilutions of the test drug. The cultures were incubated for 3, 4 and 5 days for Vero, CEM, and PBM cells, respectively in a humidified 5% CO2-air at 37° C. At the end of incubation, MTT tetrazolium dye solution (Cell titer 96®, Promega, Madison, Wis.) was added to each well and incubated overnight. The reaction was stopped with stop solubilization solution (Promega, Madison, Wis.). The plates were incubated for 5 hours to ensure that the formazan crystals were dissolved. The plates were read at a wavelength of 570 nm using an ELISA plate reader (Bio-tek instruments, Inc., Winooski, Vt., Model # EL 312e). […] Bookmark not defined.

[2] = tested on: CEM (T-lymphoblastoid cell line); type: cell-based
Protocol: as §1

[3] = tested on: mitochondrial cytochrome C oxidase subunit II (COXII) gene; type: cell-based, human; details: HepG2, 10 μM, 7 days
From the text: The Q-RT-PCR technology was also used to evaluate potential mitochondrial γ-DNA polymerase inhibition by the compounds of the present invention in relevant human cells. […] Since active nucleoside compounds in the triphosphate form lack a 3′-OH, thereby stopping virus replication by chain termination, there is a concern that these nucleoside analogues are also substrates for the human DNA polymerase γ, resulting in inhibition of mitochondrial DNA replication and subsequently toxic side effects (11, 19). In an attempt to provide direct quantifiable data on mitochondrial DNA levels intracellular, a Q-PCR technology was designed and relative quantification of COXII DNA levels were calculated using the comparative Ct method. […] Also, in agreement with previous observations, no changes in normalized mitochondrial DNA levels were observed after FIAU and D4T treatment (6, 8, 23).
Low passage number HepG2 cells, obtained from American Tissue Culture Collection (ATCC, Manassas, Va.) were seeded at 5,000 cells/well in collagen-coated 96-well plates. Test compounds were added to the media to obtain a final concentration of 10 μM. On culture day 7, cellular nucleic acids were prepared by using commercially available columns (RNeasy 96 kit, Qiagen). […] The mitochondrial cytochrome C oxidase subunit II (COXII) gene and the β-actin or rRNA gene were amplified from 5 μL with a multiplex Q-PCR protocol using the suitable primers and probes for both target and reference (designed using the Primer Express software, Applied Biosystems); • for COXII. • sense primer 5′-[…]-3′ (Sequence 7); • probe 5′-TET-[…]-TAMRA-3′ (Sequence 8); and • antisense probe 5′-[…]-3′ (Sequence 9); • for exon 3 of β-actin (GenBank E01094): • sense primer 5′-[…]-3′ (Sequence 10); • probe 5′-6FAM-[…]-TAMRA-3′ (Sequnece 11); and • antisense probe 5′-[…]-3′ (Sequence 12).
The rRNA gene primers and probes were purchased from Applied Biosystems. Standard curves using 1-log diluted total HepG2 DNA were linear over more than 5 logs. In addition, efficiencies of target (COXII DNA) and reference (β-actin DNA or rRNA) amplification were approximately equal, because the slope of the ΔCt line (Ct β-actin minus Ct mitochondrial) was less than 0.1 (not shown). Since equal amplification efficiencies were obtained for both genes, the comparative cycle threshold (Ct) method was used to investigate potential inhibition of the mitochondrial DNA polymerase γ. The comparative Ct method uses arithmetic formulas in which the amount of target (COXII gene) is normalized to an endogenous reference (β-actin gene or rRNA gene) and is relative to a calibrator (no drug control at day 7). The arithmetic formula for this approach is given by 2-ΔΔCt (User bulletin # 2, Applied Biosystems).
In order to study the consequences of possible inhibitory effects of these compounds on host DNA polymerases, nuclear and rnitochondrial DNA levels were quantified and compared to no-treatment controls. Cells were incubated for 7 days with 10 μM of each compound, followed by total nucleic acid extractions and multiplex Q-PCR of the rRNA gene and the mitochondrial COXII gene. Nucleic acids from cells exposed to the control compounds were also amplified in multiplex for mitDNA and the β-actin gene. The results are presented in Table 4 using the comparative Ct method.

Compound: O=c1[nH]cnc2c1ncn2[C@@H]1S[C@H](CO)C=C1F [Compound D-28, (+)-9-[(1R,4S)-2,3-dideoxy-2,3-didehydro-2-fluoro-4-thio-β-D-ribofuranosyl]-hypoxanthine]
- EC50 (HIV-1LAI): 43.6 µM
- IC50 (human PBM cells): > 100 µM
- IC50 [1]: > 100 µM
- IC50 [2]: > 100 µM

Compound: Nc1nc2c(ncn2[C@@H]2S[C@H](CO)C=C2F)c(=O)[nH]1 [Compound D-32, (−)-9-[(1R,4S)-2,3-dideoxy-2,3-didehydro-2-fluoro-4-thio-β-D-ribofuranosyl]-guanosine]
- EC50 (HIV-1LAI): 80.5 µM
- IC50 (human PBM cells): > 100 µM
- IC50 [1]: > 100 µM
- IC50 [2]: > 100 µM

Compound: Nc1nc(F)nc2c1ncn2[C@@H]1S[C@H](CO)C=C1F [Compound D-33, (+)-9-[(1R,4S)-2,3-dideoxy-2,3-didehydro-2-fluoro-4-thio-β-D-ribofuranosyl]-2-fluoroadenosine]
- EC50 (HIV-1LAI): 1.2 µM
- IC50 (human PBM cells): 1.5 µM
- IC50 [1]: 7.6 µM
- IC50 [2]: 1.1 µM

Compound: Cc1cn([C@H]2S[C@@H](CO)C=C2F)c(=O)[nH]c1=O [Compound L-19, (+)-1-[(1S,4R)-2,3-dideoxy-2,3-didehydro-2-fluoro-4-thio-β-L-ribofuranosyl]-thymine]
- EC50 (HIV-1LAI): > 100 µM
- IC50 (human PBM cells): > 100 µM
- IC50 [1]: > 100 µM
- IC50 [2]: > 100 µM

Compound: O=c1ccn([C@H]2S[C@@H](CO)C=C2F)c(=O)[nH]1 [Compound L-20, (+)-1-[(1S,4R)-2,3-dideoxy-2,3-didehydro-2-fluoro-4-thio-β-L-ribofuranosyl]-uracil]
- EC50 (HIV-1LAI): > 100 µM
- IC50 (human PBM cells): > 100 µM
- IC50 [1]: > 100 µM
- IC50 [2]: > 100 µM

Compound: Nc1ncnc2c1ncn2[C@H]1S[C@@H](CO)C=C1F [Compound L-27, (−)-9-[(1S,4R)-2,3-dideoxy-2,3-didehydro-2-fluoro-4-thio-β-L-ribofuranosyl]adenine]
- EC50 (HIV-1LAI): 1.7 µM
- IC50 (human PBM cells): > 100 µM
- IC50 [1]: > 100 µM
- IC50 [2]: > 100 µM

Compound: O=c1[nH]cnc2c1ncn2[C@H]1S[C@@H](CO)C=C1F [Compound L-28, (−)-9-[(1S,4R)-2,3-dideoxy-2,3-didehydro-2-fluoro-4-thio-β-L-ribofuranosyl]-hypoxanthine]
- EC50 (HIV-1LAI): 15.5 µM
- IC50 (human PBM cells): > 100 µM
- IC50 [1]: > 100 µM
- IC50 [2]: > 100 µM

Compound: Nc1nc2c(ncn2[C@H]2S[C@@H](CO)C=C2F)c(=O)[nH]1 [Compound L-32, (+)-9-[(1S,4R)-2,3-dideoxy-2,3-didehydro-2-fluoro-4-thio-β-L-ribofuranosyl]-guanosine]
- IC50 (human PBM cells): 13 µM
- IC50 [1]: 66.1 µM
- IC50 [2]: 10.4 µM

Compound: Cc1cn([C@H]2C=C[C@@H](CO)O2)c(=O)[nH]c1=O [D-D4T, β-D-2′,3′-didehydro-3′-deoxythymidine]
- COXIINβ-actin DNA (range) relative to control ([3]; COXII DNA normalized to β-actin DNA, 2-ΔΔCt): 0.85 (0.79-0.88)
- Average ΔCt ± SD COXII DNA [3]: 0.29 ± 0.01
- Average ΔΔCt ± SD COXII-β-actin [3]: 0.23 ± 0.04
- effect on (normalized) mitochondrial COXII DNA levels, in words [3]: no changes

Compound: Nc1ccn([C@H]2CC[C@@H](CO)O2)c(=O)n1 [D-ddC, β-D-2′,3′-dideoxycytidine]
- COXIINrDNA (range) relative to control ([3]; COXII DNA normalized to rDNA, 2-ΔΔCt): 0.23 (0.15-0.37)
- Average ΔΔCt ± SD COXII-rDNA [3]: 2.09 ± 0.65^d
- Average ΔΔCt ± SD COXII-β-actin [3]: 2.9 ± 0.23^d
- effect on (normalized) mitochondrial COXII DNA levels, in words [3]: reduce rnitochondrial COXII DNA levels

Compound: (−)-1-[(1S,4R)-2,3-dideoxy-2,3-didehydro-2-fluoro-4-thio-β-D-ribofuranosyl]-thymine [Compound D-19]
- EC50 (HIV-1LAI): 92.3 µM
- IC50 (human PBM cells): > 100 µM
- IC50 [1]: 53 µM
- IC50 [2]: > 100 µM

Compound: (−)-1-[(1S,4R)-2,3-dideoxy-2,3-didehydro-2-fluoro-4-thio-β-D-ribofuranosyl]-uracil [Compound D-20]
- EC50 (HIV-1LAI): > 100 µM
- IC50 (human PBM cells): > 100 µM
- IC50 [1]: > 100 µM
- IC50 [2]: > 100 µM
